The values below come from BindingDB's records for doi:10.1021/jm050513m (The University of Texas At Houston, 2005).

Each structure is given as a SMILES string. Numbered stars: 1 amine (or outer) side, 2 acyl side, 3 side chain; on linkers, the order of the positions; unused ones are H or OH. Square brackets hold non-standard residues; d marks the D form. Peptide text beside a SMILES is read from it. * marks the point of attachment. ξ: configuration not given here. pY = N[C@@H](Cc1ccc(OP(=O)(O)O)cc1)C(=O)O; NH(1R-phenylethyl) = C[C@@H](N*)c1ccccc1; Met(O2) = CS(=O)(=O)CC[C@H](N)C(=O)O; Met(O) = CS(=O)CC[C@H](N)C(=O)O; X3 = O=C(CN1CCN([*:1])CC1)[*:2]; Thr(3ξ) = CC(O)[C@H](N)C(=O)O; 3Abz = Nc1cccc(C(=O)O)c1; Ac6c = NC1(C(=O)O)CCCCC1; Inp = O=C(O)C1CCNCC1; NHBn = c1ccc(CN*)cc1; Ahx = NCCCCCC(=O)O; GABA = NCCCC(=O)O; NEt2 = CCN(CC)* Some results are limits rather than exact numbers.

The target of the first test is Signal transducer and activator of transcription 3 (Mus musculus, UniProt P42227). Put plainly: Fluorescence Polarization Assay.
Sequence of Signal transducer and activator of transcription 3 (P42227 whole entry): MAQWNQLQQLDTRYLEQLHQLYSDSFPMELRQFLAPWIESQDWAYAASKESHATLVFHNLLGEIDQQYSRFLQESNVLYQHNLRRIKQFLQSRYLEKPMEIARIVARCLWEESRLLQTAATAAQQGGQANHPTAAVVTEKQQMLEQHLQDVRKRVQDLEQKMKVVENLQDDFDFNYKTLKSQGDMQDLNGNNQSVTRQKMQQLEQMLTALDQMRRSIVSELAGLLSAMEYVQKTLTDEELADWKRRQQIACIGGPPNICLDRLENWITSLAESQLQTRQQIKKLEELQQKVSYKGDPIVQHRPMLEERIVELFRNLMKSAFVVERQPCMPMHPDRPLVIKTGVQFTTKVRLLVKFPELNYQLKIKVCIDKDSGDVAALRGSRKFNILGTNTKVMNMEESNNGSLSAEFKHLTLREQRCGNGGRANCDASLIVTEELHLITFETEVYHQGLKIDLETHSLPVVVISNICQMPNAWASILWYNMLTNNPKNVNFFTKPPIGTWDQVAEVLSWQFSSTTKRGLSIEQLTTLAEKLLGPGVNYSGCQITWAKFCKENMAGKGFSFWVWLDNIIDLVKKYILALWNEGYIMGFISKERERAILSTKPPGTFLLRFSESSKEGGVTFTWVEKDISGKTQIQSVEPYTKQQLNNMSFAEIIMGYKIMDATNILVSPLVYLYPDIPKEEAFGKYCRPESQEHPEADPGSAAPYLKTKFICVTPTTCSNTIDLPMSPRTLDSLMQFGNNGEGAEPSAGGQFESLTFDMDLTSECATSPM
Conditions: not given
The procedure: Fluorescence polarization (FP) binding assay is utilizing the intrinsic property of the fluorescent probe, which will have low polarization value when free in solution. On binding to a target, the polarization of the probe will increase. Reaction mixtures of full length STAT3 alpha and the probe were placed in wells of a 96-well microtiter plate. The test peptide solution was added to each well. Fluorescence polarization was then read in a Tecan Polarian plate reader. The IC50 values were obtained from nonlinear regression analysis in the one-site competition mode. Peptides were assayed three times using three separate Stat3-probe preparations. IC50 values are reported as the mean of three IC50 values +/- the standard deviation.
One may read the IC50 as the concentration that gives 50% inhibition. Higher therefore signals lower potency. In turn, `CC(=O)N[C@@H](Cc1ccc(OP(=O)(O)O)cc1)C(=O)N[C@@H](CC(C)C)C(=O)N1CCC[C@H]1C(=O)N[C@@H](CCC(N)=O)C(=O)NCc1ccccc1` (Ac-[pY]LPQ-NHBn) yielded a half-inhibitory concentration (IC50) of 0.409 µM.

Turning to `CC(=O)N[C@@H](Cc1ccc(OP(=O)(O)O)cc1)C(=O)N[C@@H](CC(C)C)C(=O)N1CCC[C@H]1C(=O)NC1CCCC(C(N)=O)C1` (stereo partly drawn) [4-[(2S)-2-{[(2S)-1-[(2S)-2-[(3-carbamoylcyclohexyl)carbamoyl]pyrrolidin-1-yl]-4-methyl-1-oxopentan-2-yl]carbamoyl}-2-acetamidoethyl]phenoxyphosphonic acid], the IC50 worked out at 9.81 µM.

The compound `CC(=O)N[C@@H](Cc1ccc(OP(=O)(O)O)cc1)C(=O)N[C@@H](CC(C)C)C(=O)N1CCC[C@H]1C(=O)Nc1cccc(C(N)=O)c1` [4-[(2S)-2-{[(2S)-1-[(2S)-2-[(3-carbamoylphenyl)carbamoyl]pyrrolidin-1-yl]-4-methyl-1-oxopentan-2-yl]carbamoyl}-2-acetamidoethyl]phenoxyphosphonic acid] (Ac-[pY]LP[3Abz]-NH2) yielded an IC50 of 36.6 µM.

In the case of `CC(=O)N[C@@H](Cc1ccc(OP(=O)(O)O)cc1)C(=O)N[C@@H](CC(C)C)C(=O)N1CCC[C@H]1C(=O)NCCCC(N)=O` [4-[(2S)-2-{[(2S)-1-[(2S)-2-[(3-carbamoylpropyl)carbamoyl]pyrrolidin-1-yl]-4-methyl-1-oxopentan-2-yl]carbamoyl}-2-acetamidoethyl]phenoxyphosphonic acid] (Ac-[pY]LP[GABA]-NH2), the IC50 is 1.78 µM.

In turn, `CC(=O)N[C@@H](Cc1ccc(OP(=O)(O)O)cc1)C(=O)N[C@@H](CC(C)C)C(=O)N1CCC[C@H]1C(=O)NCCCCCC(N)=O` [4-[(2S)-2-{[(2S)-1-[(2S)-2-[(5-carbamoylpentyl)carbamoyl]pyrrolidin-1-yl]-4-methyl-1-oxopentan-2-yl]carbamoyl}-2-acetamidoethyl]phenoxyphosphonic acid] (Ac-[pY]LP[Ahx]-NH2) registered an IC50 of 9.78 µM.

Consider `CC(=O)N[C@@H](Cc1ccc(OP(=O)(O)O)cc1)C(=O)N[C@@H](CC(C)C)C(=O)N1CCC[C@H]1C(=O)N1CCC(CC(N)=O)C1` (stereo partly drawn) [4-[(2S)-2-{[(2S)-1-[(2S)-2-{[3-(carbamoylmethyl)pyrrolidin-1-yl]carbonyl}pyrrolidin-1-yl]-4-methyl-1-oxopentan-2-yl]carbamoyl}-2-acetamidoethyl]phenoxyphosphonic acid], for which the IC50 was 1.69 µM.

Compound `CC(=O)N[C@@H](Cc1ccc(OP(=O)(O)O)cc1)C(=O)N[C@@H](CC(C)C)C(=O)N1CCC[C@H]1C(=O)N1CCN(CC(N)=O)CC1` [4-[(2S)-2-{[(2S)-1-[(2S)-2-{[4-(carbamoylmethyl)piperazin-1-yl]carbonyl}pyrrolidin-1-yl]-4-methyl-1-oxopentan-2-yl]carbamoyl}-2-acetamidoethyl]phenoxyphosphonic acid] registered an IC50 of 1.4 µM.

Regarding `CCN(CC)C(=O)[C@H](CCC(N)=O)NC(=O)[C@@H]1CCCN1C(=O)[C@H](CC(C)C)NC(=O)[C@H](Cc1ccc(OP(=O)(O)O)cc1)NC(C)=O` [4-[(2S)-2-{[(2S)-1-[(2S)-2-{[(1S)-3-carbamoyl-1-(diethylcarbamoyl)propyl]carbamoyl}pyrrolidin-1-yl]-4-methyl-1-oxopentan-2-yl]carbamoyl}-2-acetamidoethyl]phenoxyphosphonic acid] (Ac-[pY]LPQ-NEt2), the 50% inhibitory concentration (IC50) worked out at 4.22 µM.

`CC(=O)N[C@@H](Cc1ccc(OP(=O)(O)O)cc1)C(=O)N[C@@H](CC(C)C)C(=O)N1CCC[C@H]1C(=O)N[C@@H](CCC(N)=O)C(=O)N(C)C` [4-[(2S)-2-{[(2S)-1-[(2S)-2-{[(1S)-3-carbamoyl-1-(dimethylcarbamoyl)propyl]carbamoyl}pyrrolidin-1-yl]-4-methyl-1-oxopentan-2-yl]carbamoyl}-2-acetamidoethyl]phenoxyphosphonic acid] (Ac-[pY]LPQ-NMe2): the IC50 stood at 1.85 µM.

In turn, `CNC(=O)[C@H](CCC(N)=O)NC(=O)[C@@H]1CCCN1C(=O)[C@H](CC(C)C)NC(=O)[C@H](Cc1ccc(OP(=O)(O)O)cc1)NC(C)=O` [4-[(2S)-2-{[(2S)-1-[(2S)-2-{[(1S)-3-carbamoyl-1-(methylcarbamoyl)propyl]carbamoyl}pyrrolidin-1-yl]-4-methyl-1-oxopentan-2-yl]carbamoyl}-2-acetamidoethyl]phenoxyphosphonic acid] (Ac-[pY]LPQ-NHMe) displayed an IC50 of 0.882 µM.

Turning to `CC(=O)N[C@@H](Cc1ccc(OP(=O)(O)O)cc1)C(=O)N[C@@H](CC(C)C)C(=O)N1CCC[C@H]1C(=O)N[C@@H](CCC(N)=O)C(=O)N[C@H](C)c1ccccc1` [4-[(2S)-2-{[(2S)-1-[(2S)-2-{[(1S)-3-carbamoyl-1-{[(1R)-1-phenylethyl]carbamoyl}propyl]carbamoyl}pyrrolidin-1-yl]-4-methyl-1-oxopentan-2-yl]carbamoyl}-2-acetamidoethyl]phenoxyphosphonic acid] (Ac-[pY]LPQ-{NH(1R-phenylethyl)}), half-maximal inhibition (IC50) required 0.801 µM.

The test is the same for the next values; noted with them: pH 7.5; 22 °C.
`CC(=O)N[C@@H](Cc1ccc(OP(=O)(O)O)cc1)C(=O)N[C@@H](CC(C)C)C(=O)N1CCC[C@H]1C(=O)N[C@@H](CCC(N)=O)C(N)=O` (Ac-[pY]LPQ-NH2) showed a concentration for half-maximal inhibition (IC50) of 0.856 µM.

For the compound `CC(=O)N[C@@H](Cc1ccc(OP(=O)(O)O)cc1)C(=O)N[C@@H](CC(C)C)C(=O)NC1(C(=O)N[C@@H](CCC(N)=O)C(=O)N[C@H](C(N)=O)C(C)O)CCCCC1` (stereo partly drawn) [4-[(2S)-2-{[(1S)-1-[(1-{[(1S)-3-carbamoyl-1-{[(1S,2S)-1-carbamoyl-2-hydroxypropyl]carbamoyl}propyl]carbamoyl}cyclohexyl)carbamoyl]-3-methylbutyl]carbamoyl}-2-acetamidoethyl]phenoxyphosphonic acid] (Ac-[pY]L[Ac6c]Q[Thr(3ξ)]-NH2), half-maximal inhibition (IC50) was put at 13.4 µM.

The compound `CC(=O)N[C@@H](Cc1ccc(OP(=O)(O)O)cc1)C(=O)N[C@@H](CC(C)C)C(=O)N1CCC(C(=O)N[C@@H](CCC(N)=O)C(=O)N[C@H](C(N)=O)C(C)O)CC1` (stereo partly drawn) [4-[(2S)-2-{[(2S)-1-(4-{[(1S)-3-carbamoyl-1-{[(1S,2S)-1-carbamoyl-2-hydroxypropyl]carbamoyl}propyl]carbamoyl}piperidin-1-yl)-4-methyl-1-oxopentan-2-yl]carbamoyl}-2-acetamidoethyl]phenoxyphosphonic acid] (Ac-[pY]L[Inp]Q[Thr(3ξ)]-NH2) returned an IC50 of 34.6 µM.

In the case of `CC(=O)N[C@@H](Cc1ccc(OP(=O)(O)O)cc1)C(=O)N[C@@H](CC(C)C)C(=O)N1CCN(CC(=O)N[C@@H](CCC(N)=O)C(=O)N[C@H](C(N)=O)C(C)O)CC1` (stereo partly drawn) [4-[(2S)-2-{[(2S)-1-[4-({[(1S)-3-carbamoyl-1-{[(1S,2S)-1-carbamoyl-2-hydroxypropyl]carbamoyl}propyl]carbamoyl}methyl)piperazin-1-yl]-4-methyl-1-oxopentan-2-yl]carbamoyl}-2-acetamidoethyl]phenoxyphosphonic acid] (Ac-[pY]L[X3]Q[Thr(3ξ)]-NH2), the IC50 amounted to 57.1 µM.

For `CC(=O)N[C@@H](Cc1ccc(OP(=O)(O)O)cc1)C(=O)N[C@@H](CC(C)C)C(=O)N1CCC[C@@H]1C(=O)N[C@@H](CCC(N)=O)C(=O)N[C@H](C(N)=O)C(C)O` (stereo partly drawn) [4-[(2S)-2-{[(2S)-1-[(2R)-2-{[(1S)-3-carbamoyl-1-{[(1S,2S)-1-carbamoyl-2-hydroxypropyl]carbamoyl}propyl]carbamoyl}pyrrolidin-1-yl]-4-methyl-1-oxopentan-2-yl]carbamoyl}-2-acetamidoethyl]phenoxyphosphonic acid], the IC50 was over 100 µM.

`CC(=O)N[C@@H](Cc1ccc(OP(=O)(O)O)cc1)C(=O)N[C@@H](CC(C)C)C(=O)N1CCC[C@H]1C(=O)N[C@@H](CCC(=O)N(C)C)C(=O)N[C@H](C(N)=O)C(C)O` (stereo partly drawn) [4-[(2S)-2-{[(2S)-1-[(2S)-2-{[(1S)-1-{[(1S,2S)-1-carbamoyl-2-hydroxypropyl]carbamoyl}-3-(dimethylcarbamoyl)propyl]carbamoyl}pyrrolidin-1-yl]-4-methyl-1-oxopentan-2-yl]carbamoyl}-2-acetamidoethyl]phenoxyphosphonic acid] (Ac-[pY]LPE(NMe2)[Thr(3ξ)]-NH2) gave an IC50 of 80 µM.

For the compound `CNC(=O)CC[C@H](NC(=O)[C@@H]1CCCN1C(=O)[C@H](CC(C)C)NC(=O)[C@H](Cc1ccc(OP(=O)(O)O)cc1)NC(C)=O)C(=O)N[C@H](C(N)=O)C(C)O` (stereo partly drawn) [4-[(2S)-2-{[(2S)-1-[(2S)-2-{[(1S)-1-{[(1S,2S)-1-carbamoyl-2-hydroxypropyl]carbamoyl}-3-(methylcarbamoyl)propyl]carbamoyl}pyrrolidin-1-yl]-4-methyl-1-oxopentan-2-yl]carbamoyl}-2-acetamidoethyl]phenoxyphosphonic acid] (Ac-[pY]LPE(NHMe)[Thr(3ξ)]-NH2), half-maximal inhibition (IC50) required 18.1 µM.

Consider `CC(=O)N[C@@H](Cc1ccc(OP(=O)(O)O)cc1)C(=O)N[C@@H](CC(C)C)C(=O)N1CCC[C@H]1C(=O)N[C@@H](CC[S+](C)[O-])C(=O)N[C@H](C(N)=O)C(C)O` (stereo partly drawn) [4-[(2S)-2-{[(2S)-1-[(2S)-2-{[(1S)-1-{[(1S,2S)-1-carbamoyl-2-hydroxypropyl]carbamoyl}-3-methanesulfinylpropyl]carbamoyl}pyrrolidin-1-yl]-4-methyl-1-oxopentan-2-yl]carbamoyl}-2-acetamidoethyl]phenoxyphosphonic acid] (Ac-[pY]LP[Met(O)][Thr(3ξ)]-NH2), for which the concentration for half-maximal inhibition (IC50) was 9.87 µM.

Compound `CC(=O)N[C@@H](Cc1ccc(OP(=O)(O)O)cc1)C(=O)N[C@@H](CC(C)C)C(=O)N1CCC[C@H]1C(=O)N[C@@H](CCS(C)(=O)=O)C(=O)N[C@H](C(N)=O)C(C)O` (stereo partly drawn) [4-[(2S)-2-{[(2S)-1-[(2S)-2-{[(1S)-1-{[(1S,2S)-1-carbamoyl-2-hydroxypropyl]carbamoyl}-3-methanesulfonylpropyl]carbamoyl}pyrrolidin-1-yl]-4-methyl-1-oxopentan-2-yl]carbamoyl}-2-acetamidoethyl]phenoxyphosphonic acid] (Ac-[pY]LP[Met(O2)][Thr(3ξ)]-NH2) registered an IC50 of 13.9 µM.
